Patent US20250205158A1, “BIODEGRADABLE LIPIDS AND FORMULATIONS FOR DELIVERY OF MRNA” (Massachusetts Institute of Technology, priority 2023, published 2025)
“Also recorded” adds a separate entry of the source.

Key:
BALB/c mice = conditions: spike mRNA LNPs on day 0 and day 21, serum day 35
Experimental: Briefly, 6-8 week old BALB/c mice were vaccinated with 1 g of mRNA LNPs on day 0 and on day 21, and serum was collected on day 35 to characterize the antibody response to vaccination.
Immunization studies. […] All LNPs were injected IM in the quadricep with an injection volume of 50 μL with the doses specified in the main text. All vaccination experiments followed a prime-boost dosing regimen with doses given on day 0 and day 21. On day 35, mice were sacrificed, and blood was collected via cardiac puncture and their spleens were collected for further characterization.
Binding antibody ELISAs. […] Plates were coated overnight at 4° C. by adding 100 μL of a 1 μg/mL antigen solution in 100 mM carbonate buffer, pH 9.6 to each well. The coated plates were then washed with ELISA wash buffer (Biolegend) and blocked for 1 hr. at room temperature (RT) with 150 μL of 1% BSA in PBS. The plate was then washed again, and 100 μL of serially diluted serum samples were then added to the plate and incubated at RT for 1 hr. Next, the plate was washed and the secondary goat anti-mouse IgG, HRP antibody (ThermoFisher) was diluted 1:3,000. 100 μL of this solution added to each well an incubated at RT for 1 hr. After incubation, the plate was washed and 100 μL of TMB chromogen solution (ThermoFisher) was added to each well and incubated for 30 mins. Finally, the HRP reaction was stopped by the addition of 100 μL of 0.5 M H2SO4. The absorbance of each well was immediately read at 450 nm with 600 nm as a reference using an Infinite M200 Pro (Tecan) plate reader. The resultant data were then fit with a 4-PL sigmodal curve and the endpoint titers were taken as the point at which this curve crossed four times the absorbance of the blank wells.

TNS assay of LNP pKa = format: physicochemical
Experimental: Structural features of AMG lipids that facilitate mRNA delivery. The factors contributing to lipid potency were evaluated. The ionization properties of AMG1541 LNPs were investigated using a previously established 6-(p-toluidino)-2-napthalenesulfonic acid (TNS) assay.^22 The pKa of AMG LNPs showing higher in vivo mRNA transfection than SM-102 ranged between pH 6.4-6.7. […] In addition to endosomal buffering, it is hypothesized that the protonated ionizable lipids within the acidic endosome bind with anionic phospholipids within the endosomal membrane, destabilizing the membrane's bilayer and promoting endosomal pore formation.^17,52 The membrane fusion properties of the ionizable lipids was evaluated via ^31P NMR. When bilayer forming DPPS vesicles were mixed with equimolar AMG lipid under acidic conditions, a bilayer to hexagonal phase transition was observed, indicating their membrane-destabilizing nature (FIG. 15D).

PCSK9 gene = assay: CRISPR-Cas9 gene editing with mRNA LNPs; format: in vivo; conditions: dose of 3 mg/kg
Experimental: The ability of AMG1541 mRNA LNPs to induce CRISPR-Cas9 gene editing was also evaluated (FIGS. 9A-9D).

mice [1] = assay: tdTomato mRNA LNP expression in muscle and local draining lymph node (flow cytometry, IHC)
liver = assay: fLuc mRNA LNP protein expression after intravenous injection; format: in vivo; conditions: 0.25 mg/kg dose, 6 hrs.
Experimental: Evaluation of the LNPs via intravenous injection. The lipids were initially evaluated for intravenous protein expression by administration of a 0.25 mg/kg dose […] of fLuc mRNA LNPs.

[2] = LNP characterization (diameter, PDI, % EE); format: physicochemical; conditions: LNP formulated with the named lipid
Experimental: Representative LNP Characterization Data. The diameter, polydispersity index (PDI), and % EE were characterized for various LNPs.
LNP characterization. Concentration of mRNA was determined using a Quant-IT Ribogreen assay. LNPs were diluted in either native TE buffer (ThermoFisher) or denaturing TE buffer+0.5% Triton-X 100 (Millipore-Sigma) to measure the “free” and total mRNA, respectively. 100 μL of these unknowns were added to a black 96-well plate. Separately, standard curves ranging from 2 ng/μL-0 ng/μL were prepared in each of these buffers and 100 μL were added to the same 96-well plate. Finally, Quant-IT Ribogreen reagent (ThermoFisher) was diluted 1:200 in TE buffer and 100 μL of this solution was added to each of the wells. The well plate was then mixed at 400 rpm with a plate shaker for 5 mins. and the fluorescence was read with an excitation/emission of 485/535. LNPs were measured in triplicate and standards were measured in duplicate. RNA concentration in each of the unknown wells was calculated by fitting the standard curves with a linear trendline. Encapsulation efficiency (% EE) was calculated according to: […]
Dynamic light scattering and zeta potential measurements were performed using a Malvern Zetasizer system. The reported diameter and PDI were obtained from the cumulants fit of the autocorrelation function. Zeta potential measurements were performed in 0.1×PBS, pH 7.4 and calculated using the Smoluchowski approximation.

mice [3] = tested on: mice
Experimental: Evaluation of the LNPs via intramuscular injection. The in vivo potency of the ionizable lipids was screened through intramuscular injection of LNPs loaded with mRNA encoding firefly luciferase protein. These LNPs were formulated with a molar composition of (35:16:46.5:2.5) using one of the synthesized ionizable lipids, DOPE as a helper lipid, cholesterol, and DMPE-PEG respectively. mRNA-loaded LNPs were intramuscularly administered in mice at a dose of 1 μg, and expression of luciferase protein was monitored at 6 hours via IVIS bioluminescent imaging (FIG. 3). […] Without wishing to be bound by theory, increased levels of protein expression may enhance the response to vaccination.
In Vitro and In Vivo Screening of AMG Lipid Library. Following synthesis, the mRNA delivery efficacy of the AMG lipids was evaluated through both in vitro and in vivo screens. To screen the first generation of AMG lipids (FIGS. 11B and 11C), firefly luciferase (FLuc) mRNA was encapsulated into LNPs using a previously reported formulation containing ionizable lipid, 1,2-dioleoyl-sn-glycero-3-phosphoethanolamine (DOPE), cholesterol, and 1,2-dimyristoyl-rac-glycero-3-methoxypolyethylene glycol-2000 (DMG-PEG).^19 C2C12 myoblast cells were treated with these LNPs and FLuc expression was evaluated at 24 hrs. (FIG. 16). […] Each of these batches was then injected IM into the quadriceps of mice, and expression was characterized via IVIS imaging (Screen 1, FIG. 11E).
AMG lipids for enhanced mRNA delivery and improved tolerability. A rational design approach was used to further vary the ionizable lipid structure to enhance the mRNA delivery and immunogenicity. […] The lipid tail structure was varied to promote efficient LNP self-assembly while simultaneously promoting endosomal membrane disruption.^18 Monounsaturated (G41-G44) or fully saturated (GC12-GC18) lipid tails were developed. […] Without wishing to be bound by any particular theory, tail length may impact membrane fusion and endosomal escape.^10,11
Next, the headgroup was further modified to further improve delivery. Headgroups play a multifunctional role including enhancing LNP-mRNA interactions, promoting membrane-LNP fusion and endosomal escape which all contribute to mRNA delivery.^23 A series of similar aza-crown ethers were used to further investigate structure-activity relationship and enhance mRNA delivery. These headgroups featured between three and eight nitrogens linked by varying length of methylene chains. Each of these headgroups were reacted with tail G41 to synthesize a next generation of AMG lipids, which were then formulated with FLuc mRNA and evaluated for mRNA delivery following IM administration in mice (FIG. 12B).

[4] = tested on: Lentiviruses pseudotyped with the B.1.617.2 spike protein; format: cell-based; conditions: 293T-ACE2 cells, GFP reporter
[5] = muscle, female BALB/cJ mice, IM

## CCCCCC/C=C\CCCC(=O)OCC(O)CN1CCN(CC(O)COC(=O)CCC/C=C\CCCCCC)CCN(CC(O)COC(=O)CCC/C=C\CCCCCC)CCN(CC(O)COC(=O)CCC/C=C\CCCCCC)CCN(CC(O)COC(=O)CCC/C=C\CCCCCC)CCN(CC(O)COC(=O)CCC/C=C\CCCCCC)CC1 (centres unmarked) [AMG1541]
BALB/c mice
  antibody titers after vaccination: high antibody titers; also recorded: highest antibody titers
TNS assay of LNP pKa
  LNP pKa: ~6.5
PCSK9 gene
  serum PCSK9 levels: significant reduction in serum PCSK9 levels
Mice [1]; after IM administration
  expression in muscle fibers (IHC): tdTomato was expressed in the muscle fibers
Mice [1]; female BALB/cJ mice, IM
  protein expression in the LDLN relative to SM-102: significantly higher protein expression in APCs
Mice [1]; [5]
  fold higher tdTomato expression in DCs than SM-102: 3.8 fold
  fold higher tdTomato expression in monocytes than SM-102: 22 fold
liver
  protein expression after intravenous fLuc mRNA LNPs: comparable levels of protein expression to lipid MD-1
[2]; Ribogreen assay
  EE %: 86.0935%
[2]; dynamic light scattering
  Diameter (nm): 85 nm
  PDI: 0.107
Mice [3]; IM, 1 μg, 6 hours
  fold higher expression compared to AMG104: 4.5 fold
  fold higher in vivo mRNA transfection compared to SM-102: 3.5 fold
  fold improvement in expression over cKK-E12: 1.7 fold
Mice [3]; mouse, in vivo
  potency in intramuscular administration of mRNA compared to SM-102 and ALC-0315: equal or higher potency
  times higher in vivo mRNA delivery compared to FDA-approved counterparts: approximately three
[4]
  fold higher infection inhibition IC50 than AMG1041: approximately 2 fold
